Source: patent US20040018151A1, “Use of anandamide/cannabinoid receptor/acceptor agonists in als screening and treatment methods” (priority 2002, published 2004)

Assays:
CB1 cannabinoid receptor = CB1 cannabinoid receptor (Homo sapiens, UniProt P21554); conditions: background statement; cited from earlier work
CB1 = CB1 (Homo sapiens, UniProt P21554); conditions: background statement; cited from earlier work
[1] = system: mouse primary spinal cord cultures; experiment: TBH oxidative damage in mixed spinal cord cultures (LDH release)
[2] = system: hSOD1^G93A mice (ALS mice); experiment: Rotarod endurance (disease progression) in hSOD1^G93A mice; assay type: in vivo; conditions: for Increase of A50% (age at which endurance declined to 50%) per 10 mg/kg of THC; A.(dose) estimate: nonlinear mixed effects model, rotarod; for Days from 9 to 1 min / Days to 50% endurance: prediction based on model
Experimental: (§1) hSOD1^G93A mice (ALS mice) were administered Δ^9-THC (5 and 10 mg/kg body weight) or vehicle beginning at 60 days of age, i.e., prior to onset of disease signs. The earliest clinical signs of disease observed were tremors and shaking of their limbs when mice were suspended briefly in the air by their tails. These signs were never seen in non-transgenic littermates, but were always seen in hSOD^G93A mice after 75 days. In a subsequent set of experiments, mice were administered 20 mg/kg Δ^9-THC beginning on day 75 when tremors were first observed, i.e., after onset of disease signs. Mice were evaluated on a rotarod to follow disease progression.
In order to assess the effect of Δ^9-THC on disease progression, a logistic response curve was fit to the endurance time for each mouse using a nonlinear mixed effects model. For these experiments, each mouse was assessed on the rotarod at 5 and 10 rpm. […] A50% increased 3.3 days (±1.1 day) per 10 mg/kg of THC (2-sided p=0.003). In other words, disease progression as assessed by rotarod performance was delayed 3.3 days in the 10 mg/kg and 6.6 days in the 20 mg/kg group as compared to the vehicle treated animals. This represents a 3% increase in motor performance endurance in the 10 mg/kg group and a 6% increase in the 20 mg/kg group. Note that the increase in the 20 mg/kg group was not affected by the delay in initiation of treatment.
Animals were assessed later in the disease by testing them at the slower rotarod speed (5 rpm). In the data analysis, A50% increased 6.5 days (±0.4 day) when changing from 10 rpm to 5 rpm. However, the rate of decline increased by a factor of 2 in going from 10 rpm to 5 rpm. This rate of decline can also be understood by expressing it as number of days to decline from 9 minutes to 1-minute endurance, based on the fitting equation. At 10 rpm, it took 17.1 (±1.76) days to decline from 9 to 1 minute vs. 8.55 (±0.88) days at 5 rpm. […] FIG. 1a. Δ^9-THC delays progression of disease in hSOD1^G93A mice. Motor function was tested weekly on the rotarod at 10 and 5 rpm. The decline in endurance over time for each animal at 10 rpm is shown in (a). Mouse numbers 1-13 correspond to vehicle treated animals, numbers 1001-1008 correspond to the 10 mg/kg Δ^9-THC treatment group, and 2001-2009 correspond to the 20 mg/kg Δ^9-THC treatment group.
FIG. 1b Logistic response curves showing declines based on fitting a logistic model to observed data. Solid curves are tests at 10 rpm, dashed curves for 5 rpm. The three curves for each rpm are for doses of 0 (vehicle, blue), 10 (mg/kg Δ^9-THC, green) and 20 (mg/kg Δ^9-THC, red). Parameters for curves are based on a nonlinear mixed effects model given by Time=10/(1+exp((Age-A)/B)).

[3] = system: hSOD1^G93A mice (ALS mice); experiment: Survival of hSOD1^G93A mice; assay type: in vivo
Experimental: as §1
In these experiments, the treatment effect was to slow the progression of disease (FIG. 1b). Furthermore, treatment with Δ^9-THC improved survival. […] Treatment with 10 mg/ kg Δ^9-THC extended mean survival from 125.9±1.6 days (vehicle, n=15) to 131.8±2.4 days (Δ^9-THC, n=8, p<0.05)(FIG. 2a, c). This represents a […] increase in survival in the 10 mg/ kg Δ^9-THC-treated group. At a (delayed) dose of 20 mg/kg the increase in mean survival was 6.4 days (5.1%).
FIG. 2. Δ^9-THC extends survival in hSOD1^G93A mice. Cumulative survival in hSOD1^G93A mice treated with 10 mg/kg Δ^9-THC (a) or 20 mg/kg Δ^9-THC (b). Mortality of hSOD1^G93A mice treated with Δ^9-THC or vehicle (c).

[4] = system: hSOD1^G93A mice (ALS mice); experiment: Behaviour and body weight of treated hSOD1^G93A mice; assay type: in vivo
Experimental: as §1

[5] = system: primary neuronal cultures prepared from mouse spinal cord; experiment: Kainate excitotoxicity in spinal cord neuronal cultures; assay type: cell-based; conditions: previously observed
ALS patients = experiment: Open label crossover escalating dose study of Marinol in ALS patients; assay type: in vivo, humans
rodents = experiment: Motor toxicity in rodents; assay type: in vivo; conditions: intraperitoneally
Experimental: For THC the effective dose range should be 10 mg-70 mg/kg/day intraperitoneally in rodents. Motor toxicity is seen at 84 mg/kg/day. An estimate of effective dose range in rodents can be obtained from comparison to other measures of bioactivity of these compounds, e.g. in analgesia and/or anticonvulsant activity. […] However, other routes of administration may include intravenous, inhaled or sub-lingual, formulations such as in a patch or a spray, whereby the doses would most likely be different (e.g. 100 mg/day in a patch) in both rodents and humans.

[6] = system: primary neuronal cultures prepared from mouse spinal cord; conditions: Abood et al, Neurosci Lett 309:197-201, 2001; cited from earlier work
[7] = rpm 10, dose 10 as printed (r11)

Sequence of CB1 cannabinoid receptor (P21554 whole entry): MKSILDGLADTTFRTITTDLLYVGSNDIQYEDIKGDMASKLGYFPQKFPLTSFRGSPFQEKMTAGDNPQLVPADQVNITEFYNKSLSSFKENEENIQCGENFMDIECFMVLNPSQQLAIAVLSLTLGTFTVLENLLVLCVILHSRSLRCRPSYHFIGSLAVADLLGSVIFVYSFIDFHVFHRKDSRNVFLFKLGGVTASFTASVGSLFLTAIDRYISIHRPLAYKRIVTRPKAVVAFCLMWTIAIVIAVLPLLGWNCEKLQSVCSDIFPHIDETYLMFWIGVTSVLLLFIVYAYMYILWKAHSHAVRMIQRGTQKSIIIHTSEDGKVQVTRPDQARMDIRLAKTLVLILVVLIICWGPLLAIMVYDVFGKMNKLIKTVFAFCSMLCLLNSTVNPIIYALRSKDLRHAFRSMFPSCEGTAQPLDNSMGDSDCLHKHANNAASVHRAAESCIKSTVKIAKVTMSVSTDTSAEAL
Sequence of CB1 (P21554 whole entry): as above

For `CCCCCc1cc(O)c2c(c1)OC(C)(C)C1CCC(CO)=CC21` (stereo not shown) [11-hydroxy-THC], the “Agonist potency/activity relative to THC” value (CB1 cannabinoid receptor) is listed as “more active than its parent”.
For `CCCCCCC(C)(C)c1cc(O)c2c(c1)OC(C)(C)[C@@H]1CC=C(CO)C[C@@H]21` [HU-210], the “Activity at central (CB1) receptor” value (CB1 cannabinoid receptor) is given as “retains activity at central (CB1)”.
For `CCCCCCC(C)(C)c1cc(O)c2c(c1)OC(C)(C)[C@H]1CC=C(CO)C[C@H]21` [HU-211, dexanabinol], the “Activity at central (CB1) receptor” value (CB1 cannabinoid receptor) is given as “inactive”.
For `CCCCCCCC/C=C\CCCCCCCC(N)=O` [Oleamide], the “Binding to CB1” value (CB1) is given as “does not bind CB1”.
For `CCCc1cc(O)c2c(c1)OC(C)(C)[C@@H]1CCC(C)=C[C@@H]21` [Propyl-THC], the “Agonist potency/activity relative to THC” value (CB1 cannabinoid receptor) is listed as “less agonist activity than THC”.
In the case of `Cc1c(C(=O)NN2CCCCC2)nn(-c2ccc(Cl)cc2Cl)c1-c1ccc(Cl)cc1` [SR141716A], the “Block of the antioxidant effect of Δ^9-THC” value ([1]; 1 μM SR141716A plus 0.5 μM Δ^9-THC, TBH) was “not blocked”.
With `CCCCCc1cc(O)c2c(c1)OC(C)(C)[C@@H]1CCC(C)=C[C@@H]21` [Δ^9-THC, delta-9-tetrahydrocannabinol] the “Delay of disease progression as assessed by rotarod performance vs vehicle” value ([2]; 10 mg/kg) was 3.3 days, the “Increase in motor performance endurance” value ([2]; 10 mg/kg) was 3% and the “Increase in motor performance endurance” value ([2]; 20 mg/kg) was 6%. The “Delay of disease progression as assessed by rotarod performance vs vehicle” value ([2]; 20 mg/kg, from day 75) was 6.6 days, the “Increase of A50% (age at which endurance declined to 50%) per 10 mg/kg of THC; A.(dose) estimate” value [2] was 3.29 days and the “Increase of A50% (age at which endurance declined to 50%) per 10 mg/kg of THC; A.(dose) estimate” value ([2]; listed as THC) was 3.3 days. For the same molecule, the “Days from 9 to 1 min” value ([2]; rpm 5, dose 10) was 8.55 days, the “Days to 50% endurance” value ([2]; rpm 5, dose 10) was 109.8 days and the “Days from 9 to 1 min” value ([2]; rpm 5, dose 20) was 8.55 days. The “Days to 50% endurance” value ([2]; rpm 5, dose 20) was 113.1 days, the “Days from 9 to 1 min” value ([2]; rpm 10, dose 10 (r10)) was 17.10 days and the “Days to 50% endurance” value ([2]; rpm 10, dose 10 (r10)) was 103.3 days. The “Days from 9 to 1 min” value [2, 7] was 17.10 days, the “Days to 50% endurance” value [2, 7] was 106.6 days and the Survival ([3]; 5 mg/kg) was “trend towards increased survival”. The Mean survival ([3]; 10 mg/kg, n=8, vehicle 125.9±1.6 days) was 131.8 ± 2.4 days, the “Weights, difference between treatment groups” value ([4]; 5, 10, 20 mg/kg vs vehicle) was “no significant difference in weights” and the Overt behavioral changes ([4]; any of the doses given (5, 10, 20 mg/kg)) was “No overt behavioral changes”. The “Protection of spinal cord neurons against direct excitotoxin (kainate) exposure, compared with NBQX” value [5] was “as effective as the anti-excitotoxic compound NBQX”, the “Patients showing reduction in rate of decline of ALSFRS” value (ALS patients; 3 month trial period) was 11 of the 19 and the Serious adverse events (ALS patients; 25 patients treated, one death unrelated to drug effect) was “no other serious adverse events”. For the same molecule, the Symptomatic benefits (ALS patients; ALS patients while taking Marinol) was “Symptomatic benefits were seen in insomnia, appetite, fasciculations and spasticity”, the Tolerability (ALS patients; ALS patients, oral, escalating dose 2.5-10 mg, 3 months) was “well tolerated” and the Tolerability (ALS patients; humans, 10 mg/day orally) was “well tolerated”. The “Average rate of decline (ALSFRS)” value (ALS patients; when patients were taking drug) was 27%, the “Dose at which motor toxicity is seen” value (rodents) was 84 mg/kg/day and the Kainate toxicity [6] was “effectively reduce kainate toxicity”. For the same molecule, the Cytotoxicity ([1]; 200 μM TBH for 5 hours in the presence of 0.5 μM Δ^9-THC, TBH alone 74 (±14) %, n=4) was 28 (±8) %.
